Among the data in ChEMBL document CHEMBL1144380, “Furanyl-1,3-thiazol-2-yl and benzoxazol-5-yl acetic acid derivatives: novel classes of heparanase inhibitor” (Bioorg Med Chem Lett, 2005) are IC50 values, retold here.

Structures are written as SMILES.

In the first assay the target is T1, Heparanase (Homo sapiens, UniProt Q9Y251).
T1 sequence (Q9Y251 whole entry): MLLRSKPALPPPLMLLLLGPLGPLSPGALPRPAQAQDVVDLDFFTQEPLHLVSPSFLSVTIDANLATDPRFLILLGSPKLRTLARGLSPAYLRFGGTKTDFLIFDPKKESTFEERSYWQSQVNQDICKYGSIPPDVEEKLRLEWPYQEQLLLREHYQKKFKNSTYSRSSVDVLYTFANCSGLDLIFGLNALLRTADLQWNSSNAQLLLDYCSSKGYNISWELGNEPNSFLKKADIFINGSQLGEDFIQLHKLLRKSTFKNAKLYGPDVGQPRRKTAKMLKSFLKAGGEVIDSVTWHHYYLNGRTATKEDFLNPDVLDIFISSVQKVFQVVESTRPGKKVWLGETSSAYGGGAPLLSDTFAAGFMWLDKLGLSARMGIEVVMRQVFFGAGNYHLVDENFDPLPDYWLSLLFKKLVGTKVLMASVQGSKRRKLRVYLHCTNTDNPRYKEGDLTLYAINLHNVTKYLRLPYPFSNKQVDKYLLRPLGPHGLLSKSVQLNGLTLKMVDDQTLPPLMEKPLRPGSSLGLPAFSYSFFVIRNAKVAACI
Kind of assay: In vitro inhibitory concentration against human Heparanase.
Conditions: not given
Molecule `COc1ccc(NC(=O)/C=C/c2ccc(-c3nc4cc(CC(=O)O)ccc4o3)cc2)cc1OC` came in with an IC50 of over 10 µM.

For the molecule `COc1ccccc1NC(=O)/C=C/c1ccc(-c2nc3cc(CC(=O)O)ccc3o2)cc1`, the IC50 was over 10 µM.

For `O=C(O)Cc1ccc2oc(-c3ccc(NC(=O)c4ccc(Br)cc4)cc3Cl)nc2c1`, the IC50 was over 10 µM.

In turn, `O=C(O)Cc1ccc2oc(-c3ccc(NC(=O)/C=C/c4ccccc4)cc3Cl)nc2c1` came in with an IC50 of over 30 µM.

`O=C(O)Cc1nc(-c2ccc(-c3ccc(NC(=O)c4ccccc4)cc3Cl)o2)cs1` returned an IC50 of over 30 µM.

In another assay the target is Cytochrome P450 2C9 (Homo sapiens, UniProt P11712). Kind of assay: In vitro inhibitory concentration against Cytochrome P450 2C9. Format: ADME.
Sequence of Cytochrome P450 2C9 (P11712 whole entry): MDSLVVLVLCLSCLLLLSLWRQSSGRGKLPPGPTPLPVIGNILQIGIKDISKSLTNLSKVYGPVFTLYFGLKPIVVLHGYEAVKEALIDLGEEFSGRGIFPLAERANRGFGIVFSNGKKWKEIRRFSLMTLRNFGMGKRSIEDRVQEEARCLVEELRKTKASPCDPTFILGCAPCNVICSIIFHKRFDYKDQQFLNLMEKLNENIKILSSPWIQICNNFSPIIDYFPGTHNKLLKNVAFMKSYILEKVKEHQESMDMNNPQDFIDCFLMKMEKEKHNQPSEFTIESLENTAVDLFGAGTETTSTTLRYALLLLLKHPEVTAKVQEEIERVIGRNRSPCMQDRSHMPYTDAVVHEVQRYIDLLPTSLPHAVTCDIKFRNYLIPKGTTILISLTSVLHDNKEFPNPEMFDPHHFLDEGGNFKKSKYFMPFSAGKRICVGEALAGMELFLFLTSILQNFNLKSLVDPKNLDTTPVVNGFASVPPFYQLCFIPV
Conditions: not given
`O=C(O)Cc1ccc2oc(-c3ccc(NC(=O)/C=C/c4ccc(Br)cc4)c(F)c3)nc2c1` came in with an IC50 of over 30 µM.

System in the next assay: not listed separately
Kind of assay: In vitro anti-angiogenic activity in Human endothelial cells. Format: functional, cell-based. To be noted: endothelial cell.
As to `O=C(O)Cc1ccc2oc(-c3ccc(NC(=O)/C=C/c4ccc(F)c(Cl)c4)c(F)c3)nc2c1`, the IC50 was 1 µM.

For the molecule `O=C(O)Cc1ccc2oc(-c3ccc(NC(=O)/C=C/c4cccc(Cl)c4F)c(F)c3)nc2c1`, half-maximal inhibition (IC50) required 5 µM.

Take `O=C(O)Cc1ccc2oc(-c3ccc(NC(=O)/C=C/c4cccc(Br)c4)cc3Cl)nc2c1`: the IC50 was found to be 20 µM.

In turn, `O=C(O)Cc1ccc2oc(-c3ccc(NC(=O)/C=C/c4ccc(Br)cc4)c(F)c3)nc2c1` returned an IC50 of 1 µM.

Consider `O=C(O)Cc1ccc2oc(-c3ccc(NC(=O)/C=C/c4cccc(Br)c4)cc3)nc2c1`, for which the IC50 was over 20 µM.

For the molecule `O=C(O)Cc1nc(-c2ccc(-c3ccc(NC(=O)/C=C/c4ccc(Cl)cc4Cl)cc3Cl)o2)cs1`, the IC50 is over 20 µM.

`O=C(O)Cc1nc(-c2ccc(-c3ccc(NC(=O)c4ccc(Cl)cc4Cl)cc3Cl)o2)cs1`: the IC50 turned out to be 0.5 µM.

`O=C(O)Cc1nc(-c2ccc(-c3ccc(NC(=O)/C=C/c4ccc(OC(F)(F)F)cc4)cc3Cl)o2)cs1` gave an IC50 of 20 µM.

With `N#Cc1ccc(/C=C/C(=O)Nc2ccc(-c3nc4cc(CC(=O)O)ccc4o3)cc2F)cc1`, half-maximal inhibition (IC50) required 1 µM.

As to `N#Cc1cccc(C(=O)Nc2ccc(-c3ccc(-c4csc(CC(=O)O)n4)o3)c(Cl)c2)c1`, the IC50 is over 20 µM.

In turn, `O=C(O)Cc1nc(-c2ccc(-c3ccc(NC(=O)c4ccc(OC(F)(F)F)cc4)cc3Cl)o2)cs1` gave an IC50 of 0.5 µM.

With `O=C(O)Cc1nc(-c2ccc(-c3ccc(NC(=O)/C=C/c4ccc(Br)cc4)cc3Cl)o2)cs1`, the IC50 came out at 1 µM.

As for `O=C(O)Cc1ccc2oc(-c3ccc(NC(=O)/C=C/c4ccc(Cl)cc4Cl)c(F)c3)nc2c1`, the IC50 was over 20 µM.

In turn, `O=C(O)Cc1ccc2oc(-c3ccc(NC(=O)/C=C/c4cccc(Cl)c4)c(F)c3)nc2c1` yielded an IC50 of 7.5 µM.

`O=C(O)Cc1ccc2oc(-c3ccc(NC(=O)/C=C/c4ccc(Cl)c(Cl)c4)c(F)c3)nc2c1` gave an IC50 of 0.2 µM.

Molecule `O=C(O)Cc1nc(-c2ccc(-c3ccc(NC(=O)/C=C/c4ccccc4)cc3Cl)o2)cs1` displayed an IC50 of 15 µM.

`O=C(O)Cc1ccc2oc(-c3ccc(NC(=O)/C=C/c4ccc(Br)cc4)cc3Cl)nc2c1` had an IC50 of 7.5 µM.

Molecule `O=C(O)Cc1nc(-c2ccc(-c3ccc(NC(=O)c4ccc(C(F)(F)F)cc4)cc3Cl)o2)cs1` showed an IC50 of 7.5 µM.

`O=C(O)Cc1ccc2oc(-c3ccc(NC(=O)/C=C/c4cccc(Br)c4)c(F)c3)nc2c1`: the IC50 was 1 µM.

The molecule `COc1ccc(/C=C/C(=O)Nc2ccc(-c3ccc(-c4csc(CC(=O)O)n4)o3)c(Cl)c2)cc1` came in with an IC50 of 5 µM.

The molecule `O=C(O)Cc1ccc2oc(-c3ccc(NC(=O)/C=C/c4ccc(Br)cc4)cc3)nc2c1` came in with an IC50 of 20 µM.

Take `O=C(O)Cc1ccc2oc(-c3ccc(NC(=O)/C=C/c4ccc(Cl)cc4Cl)cc3Cl)nc2c1`: half-maximal inhibition (IC50) was put at 5 µM.

For the molecule `O=C(O)Cc1nc(-c2ccc(-c3ccc(NC(=O)c4ccc(Cl)cc4)cc3Cl)o2)cs1`, the IC50 came out at 2 µM.

For orientation: IC50 means the concentration that inhibits the measured activity by half.
